Data as given in US6613718B2, “Aryl ether derivatives and processes for their preparation and herbicidal and desiccant compositions containing them” (Ishihara Sangyo Kaisha, Ltd., priority 2001, dated 2003).

Assays:
Type in all cases: in vivo
[1] = tested on: field corn (Zea mays L., var. Dekalb 535, CORN); assay: Pre-emerge greenhouse screening, crop safety (phytotoxicity rating); details: 14 days after application
Text: (§1) A standard greenhouse herbicide activity screening system was used to evaluate the herbicidal efficacy and crop safety of these test compounds. Seven broadleaf weed species including redroot pigweed (Amaranthus retroflexus, AMARE), velvetleaf (Abutilon theophrasti, ABUTH), sicklepod (Cassia obtusifolia, CASOB), ivyleaf morningglory (Ipomoea hederacea, IPOHE), lambsquarters (Chenopodium album, CHEAL), common ragweed (Ambrosia artemisiifolia L., AMBEL), and cocklebur (Xanthium strumarium, XANST) were used as test species. Four grass weed species including green foxtail (Setaria viridis, SETVI), barnyardgrass (Echinochloa crus-galli, ECHCG), johnsongrass (Sorghum halepense, SORHA), and large crabgrass (Digitaria sanguinalis, DIGSA) were also used. In addition, three crop species, field corn (Zea mays L., var. Dekalb 535, CORN), soybean (Glycine max L., var. Pella 86, SOY), and upland rice (Oryza sp., var.Tebonnet, RICE) were included.
(§2) All plants were grown in 10 cm square plastic pots which were filled with a sandy loam soil mix. For pre-emerge tests, seeds were planted one day prior to application of the test compounds. For post-emerge tests, seeds were planted 8-21 days prior to the test to allow emergence and good foliage development prior to application of the test substances. At the time of the post-emerge application, plants of all species were usually at the 2-3 leaf stage of development.
(§3) All test compounds were dissolved in acetone and applied to the test units in a volume of 187 1/ha. Test materials were applied at rates ranging from 15 g ai/ha to 1000 g ai/ha using a track sprayer equipped with a TJ8001E even flow flat fan spray nozzle. Plants were arranged on a shelf so that the top of the canopy (post-emerge) or top of the soil surface (pre-emerge) was 40-45 cm below the nozzle. Pressurized air was used to force the test solution through the nozzle as it was mechanically advanced (via electrically driven chain drive) over the top of all test plants/pots. This application simulates a typical commercial field herbicide application.
(§4) In the post-emerge test, a commercial non-ionic surfactant was also included (0.25% v/v) to enhance wetting of the leaf surfaces of target plants. Immediately after application, test units of the pre-emerge applications were watered at the soil surface to incorporate the test materials. Subsequently, these test units were bottom-watered. Post-emerge test units were always bottom-watered.
(§5) At 14 days after application of the test materials, phytotoxicity ratings were recorded. A rating scale of 0-100 was used as previously described in Research Methods in Weed Science, 2nd edition, B. Truelove, Ed., Southern Weed Science Society, Auburn University, Auburn, Ala., 1977. Briefly, “0” corresponds to no damage and “100” corresponds to complete death of all plants in the test unit. This scale was used both to determine efficacy against weed species and damage to crop species. Herbicide activity data for various compounds of this invention, which are shown by compound No. in Tables I-VI, are shown in Tables VIII-IX.

[2] = tested on: soybean (Glycine max L., var. Pella 86, SOY); assay: as above; details: 14 days after application
Text: as §1, §2, §3, §4, §5

[3] = tested on: upland rice (Oryza sp., var.Tebonnet, RICE); assay: as above; details: 14 days after application
Text: as §1, §2, §3, §4, §5

[4] = tested on: barnyardgrass (Echinochloa crus-galli, ECHCG); assay: Post-emerge greenhouse herbicide activity screening, phytotoxicity rating; details: 14 days after application
Text: as §1, §2, §3, §4, §5

[5] = tested on: green foxtail (Setaria viridis, SETVI); assay: as above
Text: as §1, §2, §3, §4, §5

[6] = tested on: johnsongrass (Sorghum halepense, SORHA); assay: as above; details: 14 days after application
Text: as §1, §2, §3, §4, §5

[7] = tested on: sicklepod (Cassia obtusifolia, CASOB); assay: as above
Text: as §1, §2, §3, §4, §5

[8] = tested on: common ragweed (Ambrosia artemisiifolia L., AMBEL); assay: as above
Text: as §1, §2, §3, §4, §5

[9] = tested on: large crabgrass (Digitaria sanguinalis, DIGSA); assay: as above; details: 14 days after application
Text: as §1, §2, §3, §4, §5

[10] = tested on: lambsquarters (Chenopodium album, CHEAL); assay: as above
Text: as §1, §2, §3, §4, §5

[11] = tested on: redroot pigweed (Amaranthus retroflexus, AMARE); assay: as above
Text: as §1, §2, §3, §4, §5

[12] = tested on: ivyleaf morningglory (Ipomoea hederacea, IPOHE); assay: as above; details: 14 days after application
Text: as §1, §2, §3, §4, §5

[13] = tested on: velvetleaf (Abutilon theophrasti, ABUTH); assay: as above; details: 14 days after application
Text: as §1, §2, §3, §4, §5

[14] = tested on: barnyardgrass (Echinochloa crus-galli, ECHCG); assay: Pre-emerge greenhouse herbicide activity screening, phytotoxicity rating; details: 14 days after application
Text: as §1, §2, §3, §4, §5

[15] = tested on: green foxtail (Setaria viridis, SETVI); assay: as above; details: 14 days after application
Text: as §1, §2, §3, §4, §5

[16] = tested on: johnsongrass (Sorghum halepense, SORHA); assay: as above; details: 14 days after application
Text: as §1, §2, §3, §4, §5

[17] = tested on: sicklepod (Cassia obtusifolia, CASOB); assay: as above; details: 14 days after application
Text: as §1, §2, §3, §4, §5

[18] = tested on: common ragweed (Ambrosia artemisiifolia L., AMBEL); assay: as above; details: 14 days after application
Text: as §1, §2, §3, §4, §5

[19] = tested on: large crabgrass (Digitaria sanguinalis, DIGSA); assay: as above; details: 14 days after application
Text: as §1, §2, §3, §4, §5

[20] = tested on: lambsquarters (Chenopodium album, CHEAL); assay: as above; details: 14 days after application
Text: as §1, §2, §3, §4, §5

[21] = tested on: redroot pigweed (Amaranthus retroflexus, AMARE); assay: as above; details: 14 days after application
Text: as §1, §2, §3, §4, §5

[22] = tested on: ivyleaf morningglory (Ipomoea hederacea, IPOHE); assay: as above; details: 14 days after application
Text: as §1, §2, §3, §4, §5

[23] = tested on: velvetleaf (Abutilon theophrasti, ABUTH); assay: as above; details: 14 days after application
Text: as §1, §2, §3, §4, §5

[24] = tested on: field corn (Zea mays L., var. Dekalb 535, CORN); assay: Post-emerge greenhouse screening, crop safety / corn selectivity (phytotoxicity rating); details: for CORN crop damage, phytotoxicity rating (0-100 scale): 14 days after application
Text: as §1, §2, §3, §4, §5

[25] = tested on: soybean (Glycine max L., var. Pella 86, SOY); assay: Post-emerge greenhouse screening, crop safety (phytotoxicity rating); details: 14 days after application
Text: as §1, §2, §3, §4, §5

[26] = tested on: upland rice (Oryza sp., var.Tebonnet, RICE); assay: as above; details: 14 days after application
Text: as §1, §2, §3, §4, §5

[27] = 125 g ai/ha, 14 days after application
[28] = 250 g ai/ha, 14 days after application

`Cn1c(=S)n(C)c(=O)n(-c2cc(Oc3ccccc3[N+](=O)[O-])c(Cl)cc2F)c1=O` [Compound 2-17] was tested, and the “CORN crop damage, phytotoxicity rating (0-100 scale)” value (“CORN crop damage” for short) ([1]; 125 g ai/ha) was 0, the “CORN crop damage” value ([1]; 250 g ai/ha) was 0 and the “SOY crop damage, phytotoxicity rating (0-100 scale)” value (“SOY crop damage” below) ([2]; 125 g ai/ha) was 0. The “SOY crop damage” value ([2]; 250 g ai/ha) was 10, the “RICE crop damage, phytotoxicity rating (0-100 scale)” value (from here on “RICE crop damage”) ([3]; 125 g ai/ha) was 0 and the “RICE crop damage” value ([3]; 250 g ai/ha) was 0. The “ECHCG phytotoxicity rating (0-100 scale)” value ([4]; 125 g ai/ha) was 0, the “ECHCG phytotoxicity rating (0-100 scale)” value ([4]; 250 g ai/ha) was 25 and the “SETVI phytotoxicity rating (0-100 scale)” value ([5]; 31.3 g ai/ha) was 0. For the same compound, the “SETVI phytotoxicity rating (0-100 scale)” value ([5]; 62.5 g ai/ha) was 0, the “SETVI phytotoxicity rating (0-100 scale)” value [5, 27] was 0 and the “SETVI phytotoxicity rating (0-100 scale)” value [5, 28] was 0. The “SORHA phytotoxicity rating (0-100 scale)” value ([6]; 125 g ai/ha) was 0, the “SORHA phytotoxicity rating (0-100 scale)” value ([6]; 250 g ai/ha) was 0 and the “CASOB phytotoxicity rating (0-100 scale)” value ([7]; 31.3 g ai/ha) was 0. The “CASOB phytotoxicity rating (0-100 scale)” value ([7]; 62.5 g ai/ha) was 0, the “CASOB phytotoxicity rating (0-100 scale)” value [7, 27] was 25 and the “CASOB phytotoxicity rating (0-100 scale)” value [7, 28] was 65. The “AMBEL phytotoxicity rating (0-100 scale)” value ([8]; 31.3 g ai/ha) was 50, the “AMBEL phytotoxicity rating (0-100 scale)” value ([8]; 62.5 g ai/ha) was 50 and the “AMBEL phytotoxicity rating (0-100 scale)” value [8, 27] was 60. The “AMBEL phytotoxicity rating (0-100 scale)” value [8, 28] was 75, the “DIGSA phytotoxicity rating (0-100 scale)” value ([9]; 125 g ai/ha) was 0 and the “DIGSA phytotoxicity rating (0-100 scale)” value ([9]; 250 g ai/ha) was 35. For the same compound, the “CHEAL phytotoxicity rating (0-100 scale)” value ([10]; 31.3 g ai/ha) was 90, the “CHEAL phytotoxicity rating (0-100 scale)” value ([10]; 62.5 g ai/ha) was 90 and the “CHEAL phytotoxicity rating (0-100 scale)” value [10, 27] was 95. The “CHEAL phytotoxicity rating (0-100 scale)” value [10, 28] was 95, the “AMARE phytotoxicity rating (0-100 scale)” value ([11]; 31.3 g ai/ha) was 80 and the “AMARE phytotoxicity rating (0-100 scale)” value ([11]; 62.5 g ai/ha) was 80. The “AMARE phytotoxicity rating (0-100 scale)” value [11, 27] was 80, the “AMARE phytotoxicity rating (0-100 scale)” value [11, 28] was 80 and the “IPOHE phytotoxicity rating (0-100 scale)” value ([12]; 125 g ai/ha) was 0. For the same compound, the “IPOHE phytotoxicity rating (0-100 scale)” value ([12]; 250 g ai/ha) was 0, the “ABUTH phytotoxicity rating (0-100 scale)” value ([13]; 125 g ai/ha) was 95 and the “ABUTH phytotoxicity rating (0-100 scale)” value ([13]; 250 g ai/ha) was 98. For the same compound, the “ECHCG phytotoxicity rating (0-100 scale)” value ([14]; 125 g ai/ha) was 30, the “ECHCG phytotoxicity rating (0-100 scale)” value ([14]; 250 g ai/ha) was 30 and the “SETVI phytotoxicity rating (0-100 scale)” value ([15]; 125 g ai/ha) was 85. For the same compound, the “SETVI phytotoxicity rating (0-100 scale)” value ([15]; 250 g ai/ha) was 98, the “SORHA phytotoxicity rating (0-100 scale)” value ([16]; 125 g ai/ha) was 25 and the “SORHA phytotoxicity rating (0-100 scale)” value ([16]; 250 g ai/ha) was 50. For the same compound, the “CASOB phytotoxicity rating (0-100 scale)” value ([17]; 125 g ai/ha) was 0, the “CASOB phytotoxicity rating (0-100 scale)” value ([17]; 250 g ai/ha) was 30 and the “AMBEL phytotoxicity rating (0-100 scale)” value ([18]; 125 g ai/ha) was 0. The “AMBEL phytotoxicity rating (0-100 scale)” value ([18]; 250 g ai/ha) was 0, the “DIGSA phytotoxicity rating (0-100 scale)” value ([19]; 125 g ai/ha) was 60 and the “DIGSA phytotoxicity rating (0-100 scale)” value ([19]; 250 g ai/ha) was 80. For the same compound, the “CHEAL phytotoxicity rating (0-100 scale)” value ([20]; 125 g ai/ha) was 100, the “CHEAL phytotoxicity rating (0-100 scale)” value ([20]; 250 g ai/ha) was 100 and the “AMARE phytotoxicity rating (0-100 scale)” value ([21]; 125 g ai/ha) was 99. For the same compound, the “AMARE phytotoxicity rating (0-100 scale)” value ([21]; 250 g ai/ha) was 100, the “IPOHE phytotoxicity rating (0-100 scale)” value ([22]; 125 g ai/ha) was 30 and the “IPOHE phytotoxicity rating (0-100 scale)” value ([22]; 250 g ai/ha) was 50. The “ABUTH phytotoxicity rating (0-100 scale)” value ([23]; 125 g ai/ha) was 60, the “ABUTH phytotoxicity rating (0-100 scale)” value ([23]; 250 g ai/ha) was 70 and the “CORN selectivity, phytotoxicity rating (0-100 scale)” value ([24]; 62.5 g ai/ha) was 3. The “CORN crop damage” value ([24]; 125 g ai/ha) was 5, the “CORN crop damage” value ([24]; 250 g ai/ha) was 8 and the “SOY crop damage” value ([25]; 125 g ai/ha) was 0. For the same compound, the “SOY crop damage” value ([25]; 250 g ai/ha) was 25, the “RICE crop damage” value ([26]; 125 g ai/ha) was 0 and the “RICE crop damage” value ([26]; 250 g ai/ha) was 0.
